Publication PMC10734772 (Turkish Journal of Chemistry, 2021)

Tests used:
Type in all cases: cell-based
[1] = test system: K562, Nalm-6, Molt-4, Reh, Jurkat, Hek293T cell lines; experiment: MTT assay, overall judgement over all cell lines; conditions: overall judgement in words; for 6 and 10: on all cell lines, except Reh
Procedure, shortened: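 MTT viability assay run across a range of compound concentrations in leukemic lines, BCR-ABL positive K562 and BCR-ABL negative Nalm-6, Molt-4, Reh, Jurkat, plus non-leukemic Hek293T. Viability rate calculated per concentration.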

K562 = experiment: MTT assay, K562 cells; conditions: Homo sapiens, 24 h, MTT, read-out: Viability rate
Procedure: (§1) K562, Jurkat and Molt-4 cell lines were seeded as 4x10^5/ml, Reh and Nalm-6 cell lines were seeded 5x10^5/ml, Hek293T cell line was seed as 2x10^5/ml.
(§2) MTT assay is a 3-day test. On the first day, cell count was performed in Bio Rad TC-20 device with the help of trypan blue, each cell line was prepared by diluting to the specified concentrations and seeded in a 96-well plate as 100μL to each well and incubated for 1 day.
(§3) On the second day, stock solutions were subsequently diluted to various concentrations (0.3–200 μM) with related medium prior to experiments. Specified concentrations of the compounds were seeded in a 96-well plate as 100μL to each well and incubated for 24 h.
(§4) After incubation (on the third day), to precipitate leukemia cells, the cell plate was centrifuged at 1500 rpm for 5 min. […] The 50 μl of supernatant was discarded from each well and 100 μl of DMSO was added to dissolve the formazan. Plates were shaken for 45 min to dissolve the dye. Then the optical density of each well was measured by using Thermo VarioSkan Flush Multimode Reader Quantum ST5-1100 at 570 nm wavelength.
(§5) Subsequently, viability rate of the cells at each concentration, as percentage, was determined by following formula (1):
(§6) Viability rate (%)=100-[(OD(control)-OD(sample))/OD(control)×100].OD=Optical Density
(§7) The IC50 values were calculated by using GraphPad Prism. All the data presented as the mean of 6 replicates. […] Statistical analysis was performed using dose-response inhibition, log(inhibitor) vs response-variable slope, least squares (ordinary) fit.

[2] = MTT assay, Hek293T non-leukemic control cells; conditions: human, read-out: Viability rate
Jurkat = experiment: MTT assay, Jurkat cells; conditions: Homo sapiens, 24 h, read-out: Viability rate
Reh = experiment: MTT assay, Reh cells; conditions: Homo sapiens, 24 h, read-out: Viability rate
Molt-4 = experiment: MTT assay, Molt-4 cells; conditions: Homo sapiens, MOLT-4, 24 h, read-out: Viability rate
Nalm-6 = experiment: MTT assay, Nalm-6 cells; conditions: Homo sapiens, 24 h
Procedure: as §1, §2, §3, §4, §5, §6, §7

Q: For `Cc1ccnc(Nc2cc(NC(=O)c3ccc(CN4CCOCC4)cc3)ccc2C)c1` [Compound 9, N-(4-Methyl-3-((4-methylpyridin-2-yl)amino)phenyl)-4-(morhpolinomethyl)benzamide], which “anticancer activity according to MTT assay results” value [1] is on record?
A: relatively lower activity

Q: What about the viability at 0.3 µM (K562; K562, 0.3 μM) of the same molecule?
A: 79.9 ± 0.09%

Q: And the viability at 0.5 µM (K562; K562, 0.5 μM)?
A: 78.5 ± 0.03%

Q: What about the viability at 1 µM (K562; K562, 1 μM) of the same molecule?
A: 77.3 ± 0.08%

Q: What about the viability at 3 µM (K562; K562, 3 μM) of the same molecule?
A: 77 ± 0.04%

Q: And the viability at 5 µM (K562; K562, 5 μM)?
A: 75.4 ± 0.09%

Q: What about the viability at 10 µM (K562; K562, 10 μM) of the same molecule?
A: 73.2 ± 0.08%

Q: And the viability at 15 µM (K562; K562, 15 μM)?
A: 72 ± 0.06%

Q: And the viability at 20 µM (K562; K562, 20 μM)?
A: 69.1 ± 0.03%

Q: And the viability at 30 µM (K562; K562, 30 μM)?
A: 69.7 ± 0.07%

Q: And the viability at 50 µM (K562; K562, 50 μM)?
A: 61.2 ± 0.08%

Q: What about the viability at 70 µM (K562; K562, 70 μM) of the same molecule?
A: 58.1 ± 0.1%

Q: And the viability at 100 µM (K562; K562, 100 μM)?
A: 51.3 ± 0.06%

Q: What about the viability at 150 µM (K562; K562, 150 μM) of the same molecule?
A: 49.7 ± 0.05%

Q: What about the viability at 200 µM (K562; K562, 200 μM) of the same molecule?
A: 45%

Q: And the viability at 24 h, 0.3 µM ([2]; Hek293T cells (non-leukemic control cell line), 0.3 μM)?
A: 91.7 ± 0.07%

Q: What about the viability at 24 h, 0.5 µM ([2]; Hek293T cells (non-leukemic control cell line), 0.5 μM) of the same molecule?
A: 89.8 ± 0.07%

Q: What about the viability at 24 h, 3 µM ([2]; Hek293T cells (non-leukemic control cell line), 3 μM) of the same molecule?
A: 87.4 ± 0.07%

Q: And the viability at 24 h, 5 µM ([2]; Hek293T cells (non-leukemic control cell line), 5 μM)?
A: 86.2 ± 0.03%

Q: What about the viability at 24 h, 10 µM ([2]; Hek293T cells (non-leukemic control cell line), 10 μM) of the same molecule?
A: 79.3 ± 0.05%

Q: And the viability at 24 h, 15 µM ([2]; Hek293T cells (non-leukemic control cell line), 15 μM)?
A: 78.3 ± 0.03%

Q: What about the viability at 24 h, 20 µM ([2]; Hek293T cells (non-leukemic control cell line), 20 μM) of the same molecule?
A: 76.5 ± 0.05%

Q: What about the viability at 24 h, 30 µM ([2]; Hek293T cells (non-leukemic control cell line), 30 μM) of the same molecule?
A: 68.9 ± 0.03%

Q: What about the viability at 24 h, 50 µM ([2]; Hek293T cells (non-leukemic control cell line), 50 μM) of the same molecule?
A: 62.2 ± 0.02%

Q: And the viability at 24 h, 70 µM ([2]; Hek293T cells (non-leukemic control cell line), 70 μM)?
A: 56.2 ± 0.04%

Q: And the viability at 24 h, 100 µM ([2]; Hek293T cells (non-leukemic control cell line), 100 μM)?
A: 54.8 ± 0.02%

Q: What about the viability at 24 h, 150 µM ([2]; Hek293T cells (non-leukemic control cell line), 150 μM) of the same molecule?
A: 46.9 ± 0.02%

Q: And the viability at 24 h, 200 µM ([2]; Hek293T cells (non-leukemic control cell line), 200 μM)?
A: 42.8 ± 0.02%

Q: And the viability at 24 h, 1 µM ([2]; Hek293T cells, 1 μM)?
A: 89.5 ± 0.05%

Q: And the viability at 0.3 µM (Jurkat; 0.3 μM)?
A: 82.3 ± 0.05%

Q: What about the viability at 0.5 µM (Jurkat; 0.5 μM) of the same molecule?
A: 82 ± 0.06%

Q: And the viability at 1 µM (Jurkat; 1 μM)?
A: 82 ± 0.05%

Q: What about the viability at 3 µM (Jurkat; 3 μM) of the same molecule?
A: 81.7 ± 0.05%

Q: What about the viability at 5 µM (Jurkat; 5 μM) of the same molecule?
A: 83 ± 0.04%

Q: And the viability at 10 µM (Jurkat; 10 μM)?
A: 81.9 ± 0.02%

Q: And the viability at 15 µM (Jurkat; 15 μM)?
A: 80.4 ± 0.02%

Q: And the viability at 20 µM (Jurkat; 20 μM)?
A: 79 ± 0.04%

Q: What about the viability at 30 µM (Jurkat; 30 μM) of the same molecule?
A: 72.9 ± 0.07%

Q: What about the viability at 50 µM (Jurkat; 50 μM) of the same molecule?
A: 68.1 ± 0.01%

Q: What about the viability at 70 µM (Jurkat; 70 μM) of the same molecule?
A: 65.1 ± 0.02%

Q: What about the viability at 100 µM (Jurkat; 100 μM) of the same molecule?
A: 49.6 ± 0.07%

Q: What about the viability at 150 µM (Jurkat; 150 μM) of the same molecule?
A: 46.9 ± 0.05%

Q: And the viability at 200 µM (Jurkat; 200 μM)?
A: 39.1 ± 0.04%

Q: What about the viability at 0.3 µM (Reh; 0.3 μM) of the same molecule?
A: 103.8 ± 0.01%

Q: What about the viability at 0.5 µM (Reh; 0.5 μM) of the same molecule?
A: 101.3 ± 0.03%

Q: And the viability at 1 µM (Reh; 1 μM)?
A: 100.4 ± 0.01%

Q: What about the viability at 3 µM (Reh; 3 μM) of the same molecule?
A: 100.5 ± 0.02%

Q: What about the viability at 5 µM (Reh; 5 μM) of the same molecule?
A: 101.8 ± 0.03%

Q: And the viability at 10 µM (Reh; 10 μM)?
A: 103.4 ± 0.02%

Q: What about the viability at 15 µM (Reh; 15 μM) of the same molecule?
A: 100.2 ± 0.02%

Q: What about the viability at 20 µM (Reh; 20 μM) of the same molecule?
A: 99 ± 0.02%

Q: What about the viability at 30 µM (Reh; 30 μM) of the same molecule?
A: 91.4 ± 0.01%

Q: And the viability at 50 µM (Reh; 50 μM)?
A: 88.2 ± 0.02%

Q: And the viability at 70 µM (Reh; 70 μM)?
A: 84.7 ± 0.03%

Q: And the viability at 100 µM (Reh; 100 μM)?
A: 87.1 ± 0.02%

Q: What about the viability at 150 µM (Reh; 150 μM) of the same molecule?
A: 85 ± 0.01%

Q: What about the viability at 200 µM (Reh; 200 μM) of the same molecule?
A: 82 ± 0.02%

Q: And the viability at 0.3 µM (Molt-4; Molt-4, 0.3 μM)?
A: 93.2 ± 0.17%

Q: What about the viability at 0.5 µM (Molt-4; Molt-4, 0.5 μM) of the same molecule?
A: 87.8 ± 0.05%

Q: What about the viability at 1 µM (Molt-4; Molt-4, 1 μM) of the same molecule?
A: 78.4 ± 0.11%

Q: And the viability at 3 µM (Molt-4; Molt-4, 3 μM)?
A: 72.7 ± 0.04%

Q: And the viability at 5 µM (Molt-4; Molt-4, 5 μM)?
A: 71.7 ± 0.07%

Q: What about the viability at 10 µM (Molt-4; Molt-4, 10 μM) of the same molecule?
A: 69.3 ± 0.04%

Q: And the viability at 15 µM (Molt-4; Molt-4, 15 μM)?
A: 68.9 ± 0.05%

Q: And the viability at 20 µM (Molt-4; Molt-4, 20 μM)?
A: 63.5 ± 0.04%

Q: What about the viability at 30 µM (Molt-4; Molt-4, 30 μM) of the same molecule?
A: 62 ± 0.03%

Q: And the viability at 50 µM (Molt-4; Molt-4, 50 μM)?
A: 61.5 ± 0.07%

Q: And the viability at 70 µM (Molt-4; Molt-4, 70 μM)?
A: 59.8 ± 0.05%

Q: And the viability at 100 µM (Molt-4; Molt-4, 100 μM)?
A: 59.5 ± 0.08%

Q: What about the viability at 150 µM (Molt-4; Molt-4, 150 μM) of the same molecule?
A: 58.6 ± 0.06%

Q: And the viability at 200 µM (Molt-4; Molt-4, 200 μM)?
A: 54.7 ± 0.03%

Q: What about the viability at 0.3 µM (Nalm-6; Nalm-6, 0.3 μM, MTT, read-out: Viability rate) of the same molecule?
A: 86.4 ± 0.05%

Q: And the viability at 0.5 µM (Nalm-6; Nalm-6, 0.5 μM, MTT, read-out: Viability rate)?
A: 85.2 ± 0.05%

Q: What about the viability at 1 µM (Nalm-6; Nalm-6, 1 μM, MTT, read-out: Viability rate) of the same molecule?
A: 72.7 ± 0.04%

Q: What about the viability at 3 µM (Nalm-6; Nalm-6, 3 μM, MTT, read-out: Viability rate) of the same molecule?
A: 64.5 ± 0.02%

Q: What about the viability at 5 µM (Nalm-6; Nalm-6, 5 μM, MTT, read-out: Viability rate) of the same molecule?
A: 62.6 ± 0.04%

Q: What about the viability at 10 µM (Nalm-6; Nalm-6, 10 μM, MTT, read-out: Viability rate) of the same molecule?
A: 53.2 ± 0.03%

Q: What about the viability at 15 µM (Nalm-6; Nalm-6, 15 μM, MTT, read-out: Viability rate) of the same molecule?
A: 50.1 ± 0.03%

Q: What about the viability at 20 µM (Nalm-6; Nalm-6, 20 μM, MTT, read-out: Viability rate) of the same molecule?
A: 49.2 ± 0.01%

Q: And the viability at 30 µM (Nalm-6; Nalm-6, 30 μM, MTT, read-out: Viability rate)?
A: 48.1 ± 0.01%

Q: And the viability at 50 µM (Nalm-6; Nalm-6, 50 μM, MTT, read-out: Viability rate)?
A: 43.9 ± 0.01%

Q: What about the viability at 70 µM (Nalm-6; Nalm-6, 70 μM, MTT, read-out: Viability rate) of the same molecule?
A: 42.8 ± 0.01%

Q: What about the viability at 100 µM (Nalm-6; Nalm-6, 100 μM, MTT, read-out: Viability rate) of the same molecule?
A: 42.5 ± 0.01%

Q: And the viability at 150 µM (Nalm-6; Nalm-6, 150 μM, MTT, read-out: Viability rate)?
A: 42.5 ± 0.01%

Q: And the viability at 200 µM (Nalm-6; Nalm-6, 200 μM, MTT, read-out: Viability rate)?
A: 39.2%

Q: And the IC50 (Nalm-6; Nalm-6, MTT, range 0.3–200 μM, six replicates)?
A: 1640 nM
